Data reported in US7875638B2, “Synthesis of epothilones, intermediates thereto, analogues and uses thereof” (Sloan-Kettering Institute for Cancer Research, priority 2002, dated 2011).
Values after ≈ are worked out from the molar mass of the structure shown. Where two headings read alike, the source gives them in different places. Marks after values point to notes of the source that are not given here.

Assays:
RL = test: XTT cell growth inhibition, RL; format: cell-based; settings: Homo sapiens, Lymphoma, XTT tetrazonium assay, read-out: IC50 (nM), RL
[1] = tested on: human mammary carcinoma MX-1 xenograft; test: MX-1 xenograft in nude mice; settings: for Body weight on the 16th day after treatment, % of the pretreatment control: Q2Dx6
in vitro = settings: human, s9
Description: Stability of epothilones in mouse and in human liver S9 fraction. The stability study was carried out with a fully automated HPLC system which consisted of a Prospekt-2 (Spark Holland, Netherlands) sample preparation system and an Agilent 1100 HPLC system. Briefly, the Prospekt 2 picked up a C8 extraction cartridge and washed it with acetonitrile and water. The Agilent autosampler, set at 37° C., picked up 20 μl of the sample, loaded it onto the cartridge, washed it with water, then the Prospekt-2 diverted the mobile phase stream through the extraction cartridge onto the analytical column, Reliance Stable Bond C8 4×80 mm with guard column (MacMod, Chadds Ford, Pa.) and the eluent was monitored at 250 nm. […] Sample preparation involved the addition of equal volumes of plasma to PBS for a total volume of 300-400 μl, filtered, and the addition of 0.5-2 μl of the substrate (20 mM) to achieve about 30-50 mAU at 250 nm in the HPLC analysis. For pooled human liver microsome S9 fraction (Xeno Tech, Lenex, Kans.), 20 μl (400 μg) or S9 fraction was mixed with 280 μl of PBS then proceeded as above. The sampling period was controlled by the autosampler and peak area data were collected to compare the rate of disappearance of the parent compound.
Stability of epothilones in mouse and in human liver S9 fraction: The stability study was carried out with a fully automated HPLC system which consisted of a Prospekt-2 (Spark Holland, Netherlands) sample preparation system and an Agilent 1100 HPLC system. Briefly, the Prospekt 2 picked up a C8 extraction cartridge and washed it with acetonitrile and water. The Agilent autosampler, set at 37° C., picked up 20 μl of the sample, loaded it onto the cartridge, washed it with water, then the Prospekt-2 diverted the mobile phase stream through the extraction cartridge onto the analytical column, Reliance Stable Bond C8 4×80 mm with guard column (MacMod, Chadds Ford, Pa.) and the eluent was monitored at 250 nm. […] Sample preparation involves the addition of equal volumes of plasma to PBS for a total volume of 400 μl, filtered, and the addition of 0.5-2 μl of the substrate (20 mM) to achieve about 30-50 mAU at 250 nm in the HPLC analysis. For pooled human liver microsome S9 fraction (Xeno Tech, Lenex, Kans.), 20 μl (400 μg) or S9 fraction was mixed with 280 μl of PBS then proceeds as above. The sampling period was controlled by the autosampler and peak area data were collected to compare the rate of disappearance of the parent compound.

SKI-DLBCL = test: XTT cell growth inhibition, SKI-DLBCL; format: cell-based; settings: Homo sapiens; Lymphoma; XTT tetrazonium assay
RPMI8226 myeloma cells = test: Pulse exposure, washout and cell count; format: cell-based, human
IGROV = test: XTT cell growth inhibition, IGROV; format: cell-based; settings: Homo sapiens, Ovarian Ca, XTT tetrazonium assay, read-out: IC50 (nM), IGROV
[2] = tested on: human mammary carcinoma MX-1 xenograft; settings: mouse, in vivo
[3] = Octanol-water partition (POW) number by HPLC; format: physicochemical; settings: HPLC estimate, pH 7.4 buffer; read-out: Lipophilicity octanol/water partition (POW)
Description: Determination of partition of octanol-water (POW) number. An HPLC method is used to estimate octanol-water partition. An Agilent 1100 HPLC system is used with an eclipse XDB C18 column 4.6×250 mm with a mobile phase of 60% acetonitrile/40% 25 mM potassium phosphate buffer at pH 7.4 with a flow rate of 0.8 ml per min. and the eluent is monitored at 250 nm. The standards used are benzyl alcohol, acetophenone, benzophenone, naphthalene, diphenyl ether and dibenzyl with known POW of […] respectively. Sodium dichromate is used to evaluate time zero which is 2.5 min and the retention times for the standards are 3.9, 5.4, 10.6, 14, 18.7 and 19.8 min, respectively. The k value is calculated by the formula of k=(trt−t0)/t0. Linear regression of log k vs. log POW gives a straight line with r^2=0.966. This graph is used to evaluate the POW value of the epothilone analogs.

OPM-2 = test: XTT cell growth inhibition, OPM-2; format: cell-based; settings: Homo sapiens, OPM-2; Myeloma; XTT tetrazonium assay; read-out: IC50 (nM), OPM-2
Solubility in water = settings: water
CAG myeloma cell lines = test: Annexin V staining, CAG; format: cell-based, human; settings: 24 hours treatment
Excerpt: In early apoptotic cells, the membrane phospholipids phosphatidylserine (PS) is translocated from the inner to the outer leaflet of the plasma membrane, thereby exposing PS to the external cellular environment. Annexin V is a 35-36 kD Ca^2+ dependent phospholipids-binding protein that has a high affinity for PS, and binds to cells with exposed PS. In conjunction with a vital dye such as 7-amino-actinomycin (7-AAD) staining dead cells, this assay allows to identify early apoptotic cells. […] Note that X-axis is Annexin staining and Y-axis is 7-AAD staining.

MRC-5 = test: XTT cell growth inhibition, MRC-5; format: cell-based, human; settings: MRC5; Embryonic lung fibroblasts (human); XTT tetrazonium assay; read-out: IC50 (nM), MRC-5
caspase 3 = test: Caspase 3 activation by Western blot; format: cell-based, human; settings: myeloma cells
Excerpt: It is not clear whether caspase is involved in this process. Firstly, we investigated the activation of caspase 3, an effector caspase in the caspase pathway, in myeloma cells, by Western blot. […] Immunohistochemical staining of CAG myeloma cells using antibody specific to cleaved caspase-3 was used to show cytoplasmic and perinuclear localization features in apoptotic cells. […] Secondly, we attempted to assay the activity of caspase 8 and 9, initiator caspase in the caspase pathway, by fluorometric method. […] Note that increased caspase 9 activity was more prominent than caspase 8. The signals triggering the activation of caspase 8 or 9 are actively under investigation.

[4] = tested on: human xenografts in nude mice, such as MX-1; parameters: Relative therapuetic index at MTD: key to the marks not given beside the values
[5] = tested on: RPMI-8226 (human multiple myeloma cell line); test: Global gene expression (Affymetrix chip AU133 2.0); format: cell-based

C/C(=C\c1csc(C)n1)[C@@H]1C/C=C(/C(F)(F)F)C/C=C/[C@H](C)[C@H](O)[C@@H](C)C(=O)C(C)(C)[C@@H](O)CC(=O)O1 [Compound 29, 26-trifluoro-trans-9,10-dehydro-12,13-desoxyepothilone B]
IC50 (RL): 80 ± 11 nM
Body weight gain during the last three doses ([1]; 10 mg/kg, Q2DX12): 6%
Maximal body weight decrease ([1]; 10 mg/kg, Q2DX12): 12%
Tumor free after Q2Dx6 6 hr-iv. infusion (mice) ([1]; 20 mg/kg): four out of four
Therapeutic outcome in MX-1 xenograft model ([1]; 20 mg/kg and 30 mg/kg, Q2Dx6, 6 hour infusions): curative
Time for body weight to return to pretreatment control level after suspension of treatment ([1]; 20 mg/kg or 30 mg/kg Q2Dx6, i.v.-6 hr infusion): 12 to 18 days
Body weight on the 16th day after treatment, % of the pretreatment control ([1]; 20 mg/kg): 109%
Reappearance of the tumor on the 20th day after stopping treatment ([1]; 20 mg/kg, Q2Dx6, 6 hour infusion): no reappearance
Tumor reappearance on 27th day after stopping treatment (mice) ([1]; 20 mg/kg, Q2Dx6, 6 hr iv infusion): 2 out of 4
Tumor reappearance on 27th day after stopping treatment (mice) ([1]; 20 mg/kg, Q2Dx6, 6 hr iv infusion, listed as 26-trifluoro-9,10-dehydro-12,13-dexoxy-epothilone B): 2/4
Transient drop in body weight ([1]; 20 mg/kg, Q2Dx6, 6 hr. iv infusion): up to 26%
Decrease in body weight without lethality ([1]; 30 mg/kg): 27%
Body weight on the 16th day after treatment, % of the pretreatment control ([1]; 30 mg/kg): 98%
Tumor disappearance earlier than the 20 mg/kg dosage ([1]; 30 mg/kg, Q2Dx6, 6 hour iv infusion): 2 to 3 days
Relapse after suspension of treatment ([1]; 30 mg/kg, Q2Dx6, 6 hr iv infusion): absence of any relapse for over two months
Maximal tolerated dose ([1]; Q2Dx6, 6 hour infusions): ~30 mg/kg
Cell kill ([1]; assuming a tumor doubling time of 4 days): > 8.5 log
Tumor relapse after cessation of treatment ([1]; extra large MX-1, 25 mg/kg Q3Dx5 then Q3Dx4): No relapse was observed on D180
Relapse (49 days after stopping treatment) ([1]; female nude mice, large MX-1, 30 mg/kg orally): no relapse on D115
Tumor disappearance ([1]; female nude mice, large MX-1, 30 mg/kg orally Q2Dx7 then Q2Dx9): All three mice's tumor disappeared on D40, 45 and 48
Doses required for MX-1 tumor disappearance ([1]; mouse, in vivo): nine
Duration of MX-1 tumor disappearance ([1]; mouse, in vivo): 64 days
Mice relapsed on day 10 after suspension of treatment ([1]; mouse, in vivo): 0/4
Mouse tumors disappeared, large MX-1 tumors (0.5 g) ([1]; mouse, in vivo): 4/4
Relapse after suspension of treatment ([1]; mouse, in vivo): no relapse after 62 days
Tumor disappeared during the resting period (mice) ([1]; mouse, in vivo): 2 out of 5
Tumor free after Q2Dx6 6 hr-iv. infusion (mice) ([1]; mouse, in vivo): 4/4
Tumor reappeared on day 10 after administration (mice) ([1]; mouse, in vivo): 0/4^[b]
Tumor relapse after cessation of treatment ([1]; mouse, in vivo): no tumor relapse in all 5 animals on D165
Tumor shrinkage during the resting period of 9 days (D34-D43) ([1]; mouse, in vivo): > 99.3%
Tumor shrinkage ([1]; mouse, in vivo, iv, 25 mg/kg): > 97.4%
Tumor disappearance (mice) ([1]; mouse, in vivo, po, 30 mg/kg): 2 out of 4
Tumor disappearance after additional two doses (mice) ([1]; mouse, in vivo, po, 30 mg/kg): 4 out of 4
Tumor free following the cessation of treatment ([1]; mouse, in vivo, listed as 26-trifluoro-9,10-trans-dehdyro-epothilone D): 3.8 months
Tumor free following the cessation of treatment ([1]; mouse, in vivo, listed as Fludelone): 4.3 months
half-life (in vitro): 10.5 ± 2.3 h
IC50 (SKI-DLBCL): 60 ± 4.2 nM
Decrease of the number of cells from input (RPMI8226 myeloma cells): ~50%
Decrease of tumor cell numbers (RPMI8226 myeloma cells): 50%
Cell death after pulse exposure (RPMI8226 myeloma cells; 24 hrs exposure): all cells being dead by 48 hrs
IC50 (IGROV): 2 ± 1.2 nM
Maximal body weight decrease [2]: Only minor loss of body weight
Maximal drop of the body weight ([2]; po, 30 mg/kg): 15%
chromatographic logP [3]: 3.3
IC50 (OPM-2): 8.2 ± 2.2 nM
solubility (Solubility in water): 20 µg/mL (≈ 36.8 µM)
Apoptosis (Annexin V / 7-AAD) (CAG myeloma cell lines): majority of cells either enter apoptosis or are dead
IC50 (MRC-5): 7.4 ± 2.7 nM
Cleaved caspase 3 (Western blot) (caspase 3): increased 17 kd cleaved caspase 3
Maximal b.w. % drop without death ([4]; mouse, in vivo): 33%
Relative therapuetic index at MTD ([4]; mouse, in vivo): +++++
Curative therapeutic dose range ([4]; mouse, in vivo, iv): 10 to 30 mg/kg
Optimal dose for i.v. infusion ([4]; mouse, in vivo, iv): 20 to 30 mg/kg
Therapeutic dose regimen for Q2D 6 hr-iv infusion ([4]; mouse, in vivo, iv): 10 to 30 mg/kg
Optimal dose for the oral administration ([4]; oral): 20 mg/kg, QD or 30 mg/kg Q2D
Fold change in expression, APP ([5]; 6 h): +2.14 fold
Fold change in expression, BASP1 ([5]; 6 h): +2.83 fold
Fold change in expression, HIST1 ([5]; 6 h): −2.00 fold
Fold change in expression, HNRPD ([5]; 6 h): −2.46 fold
Fold change in expression, JUN ([5]; 6 h): +3.25 fold
Fold change in expression, SKIL ([5]; 6 h): +2.83 fold
Fold change in expression, SUV39 H2 ([5]; 6 h): −2.00 fold
Fold change, AIM2 ([5]; 6 h): −2.64 fold
Fold change, BCL3 ([5]; 6 h): +3.25 fold
Fold change, CA4 ([5]; 6 h): −2.14 fold
Fold change, HLA-II DPα ([5]; 6 h): −3.73 fold
Fold change, Heme oxygenase ([5]; 6 h): +2.30 fold
Fold change, PTPL ([5]; 6 h): −2.46 fold
Fold change, T RIM34 ([5]; 6 h): −5.66 fold
Fold change, TRIM22 ([5]; 6 h): −2.46 fold
Fold change, GIP3 ([5]; 6 hr gene difference, Fludelone vs dEpoB treated cells): −6.06 fold
